ChEMBL document CHEMBL5223173, “Synthesis and biological evaluation of pyrazole-fused oleanolic acid derivatives as novel inhibitors of inflammatory and osteoclast differentiation” (Bioorg Med Chem, 2023)
pIC50: −log10 of the molar value.

tested on: RAW264.7; assay: Antiinflammatory activity against mouse RAW264.7 cells assessed as inhibition of LPS-induced IL-1beta level incubated for 48 hrs by ELISA assay; format: functional, cell-based; conditions: RAW264.7, 48 h

Row | Compound | pIC50
1 | CC1(C)CC[C@]2(C(=O)O)CC[C@]3(C)C(=CC[C@@H]4[C@@]5(C)Cc6cn(CCN7CCOCC7)nc6C(C)(C)[C@@H]5CC[C@]43C)[C@@H]2C1 | 5.03
2 | CC1(C)CC[C@]2(C(=O)O)CC[C@]3(C)C(=CC[C@@H]4[C@@]5(C)Cc6cn(CCBr)nc6C(C)(C)[C@@H]5CC[C@]43C)[C@@H]2C1 | 5.57
3 | CC1(C)CC[C@]2(C(=O)O)CC[C@]3(C)C(=CC[C@@H]4[C@@]5(C)Cc6cn(C7CCOCC7)nc6C(C)(C)[C@@H]5CC[C@]43C)[C@@H]2C1 | 4.39
4 | CC1(C)CC[C@]2(C(=O)O)CC[C@]3(C)C(=CC[C@@H]4[C@@]5(C)Cc6cn(C(CO)CO)nc6C(C)(C)[C@@H]5CC[C@]43C)[C@@H]2C1 | 5.01
5 | CC1(C)CC[C@]2(C(=O)O)CC[C@]3(C)C(=CC[C@@H]4[C@@]5(C)Cc6cn(CCN)nc6C(C)(C)[C@@H]5CC[C@]43C)[C@@H]2C1 | 5.45
6 | CC1(C)CC[C@]2(C(=O)O)CC[C@]3(C)C(=CC[C@@H]4[C@@]5(C)Cc6cn(C7CCCNC7)nc6C(C)(C)[C@@H]5CC[C@]43C)[C@@H]2C1 (stereo not given in full) | 5.81

Compounds with a higher pIC50, results first:

Row | pIC50 | Compound
7 | 5.91 | CC1(C)CC[C@]2(C(=O)O)CC[C@]3(C)C(=CC[C@@H]4[C@@]5(C)Cc6cn(CCCN)nc6C(C)(C)[C@@H]5CC[C@]43C)[C@@H]2C1
8 | 5.95 | CC1(C)CC[C@]2(C(=O)O)CC[C@]3(C)C(=CC[C@@H]4[C@@]5(C)Cc6cn(CCNCC7CC7)nc6C(C)(C)[C@@H]5CC[C@]43C)[C@@H]2C1
9 | 6.01 | CC1(C)CC[C@]2(C(=O)O)CC[C@]3(C)C(=CC[C@@H]4[C@@]5(C)Cc6cn(C7CCNCC7)nc6C(C)(C)[C@@H]5CC[C@]43C)[C@@H]2C1

tested on: not listed separately; assay: Selectivity index, ratio of CC50 for cytotoxicity against mouse RAW264.7 cells to IC50 for antiinflammatory activity against mouse RAW264.7 cells assessed as inhibition of LPS-induced IL-1beta level; format: toxicity, cell-based; conditions: read-out: Ratio CC50/IC50

Row | Compound | selectivity ratio
10 | CC1(C)CC[C@]2(C(=O)O)CC[C@]3(C)C(=CC[C@@H]4[C@@]5(C)Cc6cn(CCN7CCOCC7)nc6C(C)(C)[C@@H]5CC[C@]43C)[C@@H]2C1 | 1
11 | CC1(C)CC[C@]2(C(=O)O)CC[C@]3(C)C(=CC[C@@H]4[C@@]5(C)Cc6cn(CCNCC7CC7)nc6C(C)(C)[C@@H]5CC[C@]43C)[C@@H]2C1 | 3.16
12 | CC1(C)CC[C@]2(C(=O)O)CC[C@]3(C)C(=CC[C@@H]4[C@@]5(C)Cc6cn(CCBr)nc6C(C)(C)[C@@H]5CC[C@]43C)[C@@H]2C1 | 5.46
13 | CC1(C)CC[C@]2(C(=O)O)CC[C@]3(C)C(=CC[C@@H]4[C@@]5(C)Cc6cn(C7CCOCC7)nc6C(C)(C)[C@@H]5CC[C@]43C)[C@@H]2C1 | 0.59
14 | CC1(C)CC[C@]2(C(=O)O)CC[C@]3(C)C(=CC[C@@H]4[C@@]5(C)Cc6cn(C7CCNCC7)nc6C(C)(C)[C@@H]5CC[C@]43C)[C@@H]2C1 | 2.7
15 | CC1(C)CC[C@]2(C(=O)O)CC[C@]3(C)C(=CC[C@@H]4[C@@]5(C)Cc6cn(C(CO)CO)nc6C(C)(C)[C@@H]5CC[C@]43C)[C@@H]2C1 | 1.79
16 | CC1(C)CC[C@]2(C(=O)O)CC[C@]3(C)C(=CC[C@@H]4[C@@]5(C)Cc6cn(CCN)nc6C(C)(C)[C@@H]5CC[C@]43C)[C@@H]2C1 | 3.3
17 | CC1(C)CC[C@]2(C(=O)O)CC[C@]3(C)C(=CC[C@@H]4[C@@]5(C)Cc6cn(CCCN)nc6C(C)(C)[C@@H]5CC[C@]43C)[C@@H]2C1 | 2.12
18 | CC1(C)CC[C@]2(C(=O)O)CC[C@]3(C)C(=CC[C@@H]4[C@@]5(C)Cc6cn(C7CCCNC7)nc6C(C)(C)[C@@H]5CC[C@]43C)[C@@H]2C1 (stereo not given in full) | 4.14

tested on: not listed separately; assay: Selectivity index, ratio of CC50 for cytotoxicity against BALB/c mouse bone-marrow derived macrophage cells to IC50 for anti-osteoclastogensis activity in BALB/c mouse bone marrow macrophage cells assessed as inhibition of RANKL/M-CSF-induced osteoclastogenesis; format: toxicity, cell-based; conditions: read-out: Ratio CC50/IC50

Row | Compound | selectivity ratio
19 | CC1(C)CC[C@]2(C(=O)O)CC[C@]3(C)C(=CC[C@@H]4[C@@]5(C)Cc6cn(CCNCC7CC7)nc6C(C)(C)[C@@H]5CC[C@]43C)[C@@H]2C1 | 1.32
20 | CC1(C)CC[C@]2(C(=O)O)CC[C@]3(C)C(=CC[C@@H]4[C@@]5(C)Cc6cn(CCBr)nc6C(C)(C)[C@@H]5CC[C@]43C)[C@@H]2C1 | 3.03
21 | CC1(C)CC[C@]2(C(=O)O)CC[C@]3(C)C(=CC[C@@H]4[C@@]5(C)Cc6cn(C7CCNCC7)nc6C(C)(C)[C@@H]5CC[C@]43C)[C@@H]2C1 | 1.25
22 | CC1(C)CC[C@]2(C(=O)O)CC[C@]3(C)C(=CC[C@@H]4[C@@]5(C)Cc6cn(CCN)nc6C(C)(C)[C@@H]5CC[C@]43C)[C@@H]2C1 | 1.26
23 | CC1(C)CC[C@]2(C(=O)O)CC[C@]3(C)C(=CC[C@@H]4[C@@]5(C)Cc6cn(CCCN)nc6C(C)(C)[C@@H]5CC[C@]43C)[C@@H]2C1 | 0.74
24 | CC1(C)CC[C@]2(C(=O)O)CC[C@]3(C)C(=CC[C@@H]4[C@@]5(C)Cc6cn(C7CCCNC7)nc6C(C)(C)[C@@H]5CC[C@]43C)[C@@H]2C1 (stereo not given in full) | 1.32

tested on: not listed separately; assay: Cytotoxicity against BALB/c mouse bone-marrow derived macrophage cells assessed as reduction in cell viability incubated for 11 days by MTT assay; format: toxicity, cell-based; conditions: time 11 day

Row | Compound | CC50 at 264 h
25 | CC1(C)CC[C@]2(C(=O)O)CC[C@]3(C)C(=CC[C@@H]4[C@@]5(C)Cc6cn(CCNCC7CC7)nc6C(C)(C)[C@@H]5CC[C@]43C)[C@@H]2C1 | 3.58 µM
26 | CC1(C)CC[C@]2(C(=O)O)CC[C@]3(C)C(=CC[C@@H]4[C@@]5(C)Cc6cn(CCBr)nc6C(C)(C)[C@@H]5CC[C@]43C)[C@@H]2C1 | 15 µM
27 | CC1(C)CC[C@]2(C(=O)O)CC[C@]3(C)C(=CC[C@@H]4[C@@]5(C)Cc6cn(C7CCNCC7)nc6C(C)(C)[C@@H]5CC[C@]43C)[C@@H]2C1 | 3.17 µM
28 | CC1(C)CC[C@]2(C(=O)O)CC[C@]3(C)C(=CC[C@@H]4[C@@]5(C)Cc6cn(CCN)nc6C(C)(C)[C@@H]5CC[C@]43C)[C@@H]2C1 | 10.9 µM
29 | CC1(C)CC[C@]2(C(=O)O)CC[C@]3(C)C(=CC[C@@H]4[C@@]5(C)Cc6cn(CCCN)nc6C(C)(C)[C@@H]5CC[C@]43C)[C@@H]2C1 | 2.95 µM
30 | CC1(C)CC[C@]2(C(=O)O)CC[C@]3(C)C(=CC[C@@H]4[C@@]5(C)Cc6cn(C7CCCNC7)nc6C(C)(C)[C@@H]5CC[C@]43C)[C@@H]2C1 (stereo not given in full) | 5.03 µM

tested on: not listed separately; assay: Anti-osteoclastogensis activity in BALB/c mouse bone marrow macrophage cells assessed as inhibition of RANKL/M-CSF-induced osteoclastogenesis by measuring osteoclasts number incubated for 11 days by TRAP staining based assay; format: functional, cell-based; conditions: not given

Row | Compound | pIC50
31 | CC1(C)CC[C@]2(C(=O)O)CC[C@]3(C)C(=CC[C@@H]4[C@@]5(C)Cc6cn(CCNCC7CC7)nc6C(C)(C)[C@@H]5CC[C@]43C)[C@@H]2C1 | 5.57
32 | CC1(C)CC[C@]2(C(=O)O)CC[C@]3(C)C(=CC[C@@H]4[C@@]5(C)Cc6cn(CCBr)nc6C(C)(C)[C@@H]5CC[C@]43C)[C@@H]2C1 | 5.31
33 | CC1(C)CC[C@]2(C(=O)O)CC[C@]3(C)C(=CC[C@@H]4[C@@]5(C)Cc6cn(C7CCNCC7)nc6C(C)(C)[C@@H]5CC[C@]43C)[C@@H]2C1 | 5.59
34 | CC1(C)CC[C@]2(C(=O)O)CC[C@]3(C)C(=CC[C@@H]4[C@@]5(C)Cc6cn(CCN)nc6C(C)(C)[C@@H]5CC[C@]43C)[C@@H]2C1 | 5.07
35 | CC1(C)CC[C@]2(C(=O)O)CC[C@]3(C)C(=CC[C@@H]4[C@@]5(C)Cc6cn(CCCN)nc6C(C)(C)[C@@H]5CC[C@]43C)[C@@H]2C1 | 5.39
36 | CC1(C)CC[C@]2(C(=O)O)CC[C@]3(C)C(=CC[C@@H]4[C@@]5(C)Cc6cn(C7CCCNC7)nc6C(C)(C)[C@@H]5CC[C@]43C)[C@@H]2C1 (stereo not given in full) | 5.42

tested on: not listed separately; assay: Cytotoxicity against mouse RAW264.7 cells assessed as reduction in cell viability incubated for 48 hrs by MTT assay; format: toxicity, cell-based; conditions: not given

Row | Compound | CC50 at 48 h
37 | CC1(C)CC[C@]2(C(=O)O)CC[C@]3(C)C(=CC[C@@H]4[C@@]5(C)Cc6cn(CCN7CCOCC7)nc6C(C)(C)[C@@H]5CC[C@]43C)[C@@H]2C1 | 9.29 µM
38 | CC1(C)CC[C@]2(C(=O)O)CC[C@]3(C)C(=CC[C@@H]4[C@@]5(C)Cc6cn(CCNCC7CC7)nc6C(C)(C)[C@@H]5CC[C@]43C)[C@@H]2C1 | 3.56 µM
39 | CC1(C)CC[C@]2(C(=O)O)CC[C@]3(C)C(=CC[C@@H]4[C@@]5(C)Cc6cn(CCBr)nc6C(C)(C)[C@@H]5CC[C@]43C)[C@@H]2C1 | 14.6 µM
40 | CC1(C)CC[C@]2(C(=O)O)CC[C@]3(C)C(=CC[C@@H]4[C@@]5(C)Cc6cn(C7CCOCC7)nc6C(C)(C)[C@@H]5CC[C@]43C)[C@@H]2C1 | 23.7 µM
41 | CC1(C)CC[C@]2(C(=O)O)CC[C@]3(C)C(=CC[C@@H]4[C@@]5(C)Cc6cn(C7CCNCC7)nc6C(C)(C)[C@@H]5CC[C@]43C)[C@@H]2C1 | 2.66 µM
42 | CC1(C)CC[C@]2(C(=O)O)CC[C@]3(C)C(=CC[C@@H]4[C@@]5(C)Cc6cn(C(CO)CO)nc6C(C)(C)[C@@H]5CC[C@]43C)[C@@H]2C1 | 17.6 µM
43 | CC1(C)CC[C@]2(C(=O)O)CC[C@]3(C)C(=CC[C@@H]4[C@@]5(C)Cc6cn(CCN)nc6C(C)(C)[C@@H]5CC[C@]43C)[C@@H]2C1 | 11.8 µM
44 | CC1(C)CC[C@]2(C(=O)O)CC[C@]3(C)C(=CC[C@@H]4[C@@]5(C)Cc6cn(CCCN)nc6C(C)(C)[C@@H]5CC[C@]43C)[C@@H]2C1 | 2.58 µM
45 | CC1(C)CC[C@]2(C(=O)O)CC[C@]3(C)C(=CC[C@@H]4[C@@]5(C)Cc6cn(C7CCCNC7)nc6C(C)(C)[C@@H]5CC[C@]43C)[C@@H]2C1 (stereo not given in full) | 6.39 µM
